Measurements from patent US7589062B2, “Two synthetic peptides for treatment and prevention of cancers” (priority 2002, dated 2009).
Where no end group is shown, it is not given here.

Experiments:
BT-20 - cancer of breast = experiment: Cytolytic effect on cancer cells in culture, read microscopically; type: cell-based, human
Experimental: (§1) Biological cytolytic activity of AT and KT at various concentrations ranging from […], 6.25, 12.5 and 25 μg/ml were tested on human cancer cells and SP/2 mouse myeloma cells. The combination AT+KT was 50% by weight of each.

[1] = tested on: HBL-100 - cancer of breast; experiment: as above; type: cell-based, human
Experimental: as §1

HT-29 - cancer of colon = experiment: as above; type: cell-based, human
Experimental: as §1

[2] = tested on: Sk-ov-3 - cancer of ovary; experiment: as above; type: cell-based, human
Experimental: as §1

CCL-13 - cancer of mouth = experiment: as above; type: cell-based, human
SP/2 - mouse myeloma = experiment: as above; type: cell-based
SP/2 cancer cells = experiment: Anti cancer activity in vivo: survival of mice injected i.p. with SP/2 cancer cells (ascitic tumors); details: Balb/c mice, 2 million SP/2 cells i.p.; 100 μg/mouse for seven consecutive days; PBS control 23 days
Experimental: Anti Cancer Activity of Synthetic AT and KT In Vivo: Adult Balb/c mice were injected intra-peritoneally with 0.5 ml containing 2 million SP/2 cancer cells. Mice were divided into four groups. Starting from day one of post injection the mice were treated with AT and KT individually and the combination of both at 200 μg/ml concentration. Doses of 0.5 ml containing 100 μg/mouse were given for seven consecutive days and the control mice received 0.5 ml PBS.

SP/2 cells = experiment: Cytolytic activity of trypsin digested fragments of AT and KT on SP/2 cells; type: cell-based, mouse; details: 10^5 SP/2 cells, 20-1.0 μg/ml, read after three days
Experimental: Biological Activity of Fragments on SP/2 cells: The cytolytic activity of the trypsin digested fragments of AT and KT were tested on 10^5 SP/2 cells. Dulbecco Modified Eagle's Medium (DMEM) containing 10% newborn calf serum (NBCS), L-glutamine and antibiotics penicillin and streptomycin was used to grow SP/2 cells. Initially, each fraction was tested on cells grown in 48 well plate at 37° C. in a humid CO2 incubator. The serum free medium containing different concentrations such as 20, 10, 5, 2.5 and 1.0 μg/ml of each fragment was tested. Control cells received PBS to serve as controls.
The tests were read after three days. […] Those fragments were considered as the active domains for cancer cell inhibitor. […] The fragment 6 for AT and the fragment 10 for KT were considered as the active domains for cytolytic activity.

[3] = comparison of syn KT with syn AT

Sequence	% Cytolyic cells BT-20 (BT-20 - cancer of breast; 3.12 μg/ml)	% Cytolyic cells BT-20 (BT-20 - cancer of breast; 6.25 μg/ml)	% Cytolyic cells BT-20 (BT-20 - cancer of breast; 12.5 μg/ml)	% Cytolyic cells BT-20 (BT-20 - cancer of breast; 25 μg/ml)	% Cytolyic cells HBL-100 ([1]; 3.12 μg/ml)	% Cytolyic cells HBL-100 ([1]; 6.25 μg/ml)	% Cytolyic cells HBL-100 ([1]; 12.5 μg/ml)	% Cytolyic cells HBL-100 ([1]; 25 μg/ml)	% Cytolyic cells HT-29 (HT-29 - cancer of colon; 3.12 μg/ml)	% Cytolyic cells HT-29 (HT-29 - cancer of colon; 6.25 μg/ml)	% Cytolyic cells HT-29 (HT-29 - cancer of colon; 12.5 μg/ml)	% Cytolyic cells HT-29 (HT-29 - cancer of colon; 25 μg/ml)	% Cytolyic cells Sk-ov-3 ([2]; 3.12 μg/ml)	% Cytolyic cells Sk-ov-3 ([2]; 6.25 μg/ml)	% Cytolyic cells Sk-ov-3 ([2]; 12.5 μg/ml)	% Cytolyic cells Sk-ov-3 ([2]; 25 μg/ml)	% Cytolyic cells CCL-13 (CCL-13 - cancer of mouth; 3.12 μg/ml)	% Cytolyic cells CCL-13 (CCL-13 - cancer of mouth; 6.25 μg/ml)	% Cytolyic cells CCL-13 (CCL-13 - cancer of mouth; 12.5 μg/ml)	% Cytolyic cells CCL-13 (CCL-13 - cancer of mouth; 25 μg/ml)	also measured
FCRFLLCPSR (cysteine pairing not given here) [Atroporin]	0%	0%	50%	100%	0%	0%	50%	100%	0%	0%	100%	100%	0%	100%	100%	100%	0%	50%	100%	100%	Cytolytic effect compared in similar concentration, Sk-ov-3 ([2]; comparison of syn AT with the other peptide): more cytolytic; % Cytolyic cells SP/2 (SP/2 - mouse myeloma; 3.12 μg/ml): 0%; % Cytolyic cells SP/2 (SP/2 - mouse myeloma; 6.25 μg/ml): 0%; % Cytolyic cells SP/2 (SP/2 - mouse myeloma; 12.5 μg/ml): 50%; % Cytolyic cells SP/2 (SP/2 - mouse myeloma; 25 μg/ml): 100%; Survival (incubation period for development of ascitic tumors to cause death) (SP/2 cancer cells): 30 days
FCRFLLCPSRSLL (cysteine pairing not given here) [fragment 6 for AT]																					Cytolytic activity of trypsin digested fragments, ranking among fragments (SP/2 cells): most active
PPGNQPDADSN [fragment 10 for KT]																					Cytolytic activity of trypsin digested fragments, ranking among fragments (SP/2 cells): most active
PPGNQPDADS [Kaotree]	0%	0%	75%	100%	0%	50%	100%	100%	0%	0%	100%	100%	0%	50%	100%	100%	0%	0%	100%	100%	Cytolytic effect compared in similar concentration, BT-20 (BT-20 - cancer of breast; [3]): more cytolytic than AT; Cytolytic effect compared in similar concentration, HBL-100 [1, 3]: more cytolytic than AT; % Cytolyic cells SP/2 (SP/2 - mouse myeloma; 3.12 μg/ml): 0%; % Cytolyic cells SP/2 (SP/2 - mouse myeloma; 6.25 μg/ml): 50%; % Cytolyic cells SP/2 (SP/2 - mouse myeloma; 12.5 μg/ml): 100%; % Cytolyic cells SP/2 (SP/2 - mouse myeloma; 25 μg/ml): 100%; Survival (incubation period for development of ascitic tumors to cause death) (SP/2 cancer cells): 37 days
